Source: patent US20170095440A1, “METHOD OF TREATING CANINE PANCREATITIS” (CK9, LLC, priority 2014, published 2017)
“And” between values parts separate entries of the source, which are not always exact repeats. Identical values can stand only once. “Also recorded” adds a separate entry of the source.

How the values were obtained:
[1] = system: TGF-β1; conditions: one published study, cited from earlier work
[2] = system: rat models; conditions: cited from earlier work
[3] = system: Han Wistar rats; test: Multiple-dose tolerance study, oral gavage 3 times a day for 7 days; format: in vivo, rat
Method: The following parameters and end points were evaluated in the multiple-dose phase of this study: clinical signs, body weights, body weight changes, food consumption, and gross necropsy findings.
A total of 18 male and 24 female Han Wistar rats were received from Charles River Laboratories, Raleigh, N.C. The animals were examined and weighed on the day following receipt. The rising-dose phase animals were 8 weeks old and weighed between 176 g and 255 g at initiation of dosing and the multiple-dose phase animals were 8 weeks old and weighed between 172 g and 259 g at initiation of dosing.
For the multiple-dose study, the test and control articles were administered to the appropriate animals 3 times a day by oral gavage from Days 1 to 7. The doses were administered 8 hours±30 minutes apart. The dose volume for each animal was based on the most recent body weight measurement. The doses were given using a syringe with attached gavage cannula. The first day of dosing was designated as Study Day 1.
Cage side observations were performed once daily, beginning during Week −1 and throughout the dosing phase. During the dosing period, these observations were performed 1 to 3 hours post the first daily dose.
The animals were removed from the cage and a detailed clinical observation was performed on the day of randomization and Days 1 and 8. Each animal was weighed on the day of randomization (Day −4) and Days 1 to 8. Food consumption was quantitatively measured for each animal weekly, starting Day −4, throughout the dosing phase.
(§1) Multiple-dose study animals were subjected to a complete necropsy examination, which included evaluation of the carcass and musculoskeletal system; all external surfaces and orifices; cranial cavity and external surfaces of the brain; and thoracic, abdominal, and pelvic cavities with their associated organs and tissues. Necropsy examinations were conducted under the supervision of a board-certified veterinary pathologist.
For the multiple-dose study, numerical data collected on scheduled occasions for the listed variables were analyzed as indicated according to sex and occasion. Descriptive statistics number, mean and standard deviation (or % CV or SE when deemed appropriate) were reported whenever possible. Inferential statistics were performed according to the matrix below when possible, but excluded semi-quantitative data, and any group with less than 3 observations.
Levene's test was used to assess the homogeneity of group variances parametric assumption at the 5% significance level. Datasets with at least 3 groups were compared using an overall one-way ANOVA F-test or Kruskal-Wallis test (if parametric assumptions were not met) at the 5% significance level. The above pairwise comparisons were conducted using a two-sided Dunnett's or Dunn's test, respectively, if the overall test was significant. Datasets with 2 groups were compared using a two-sided t-test or Wilcoxon Rank-Sum test, respectively. All significant pairwise comparisons were reported at the 0.1%, 1%, and 5% significance levels.

[4] = system: Beagle dogs; test: Multiple-dose tolerance study, oral capsule 3 times a day for 14 days; format: in vivo, dog
Method: The following parameters and end points were evaluated in the multiple-dose phase of this study: clinical signs, body weights, body weight changes, food consumption, electrocardiography, clinical pathology parameters (hematology, clinical chemistry, and urinalysis), and gross necropsy findings.
3 male and 3 female Beagle dogs were received from Marshall BioResources, North Rose, N.Y. The animals were examined and weighed on the day following receipt. The rising-dose phase animals were 6 months old and weighed 7.5 kg and 8.3 kg at initiation of dosing. The multiple-dose phase animals were 7 months old and weighed 7.4 kg and 7.6 kg at initiation of dosing.
For the multiple-dose phase, the test article was administered to the appropriate animals 3 times a day in an oral capsule from Days 1 to 14. The doses were administered 8 hours±30 minutes apart. The dose amount for each animal was based on the most recent body weight measurement. The first day of dosing was designated as Day 1.
Cage side observations were performed once daily, beginning during Week −1 and throughout the dosing period. During the dosing period, these observations were performed 1 to 3 hours post the first daily dose. The animals were removed from the cage and a detailed clinical observation was performed weekly, beginning during Week −1. Each animal was weighed on the day of randomization and Days 1, 4, 8, 11, and 15. A fasted weight was recorded on the day of necropsy. Food consumption was quantitatively measured for each animal daily, starting Week −1, throughout the dosing period, except for on the day of scheduled euthanasia.
Electrocardiogram (ECG) measurements were obtained from all animals using leads I, II, III, aVR, aVL, and aVF and a chart speed of 50 mm/second. The ECG measurements were obtained once on Day −1 (pretreatment) and Day 14 (approximately 3 hours post the first daily dose). Only lead II was evaluated by a board-certified veterinary cardiologist.
Blood was collected by venipuncture of the jugular vein. Urine was collected overnight by cage pan drainage. After collection, samples were transferred to the clinical pathology laboratory for processing. The animals were fasted overnight prior to scheduled clinical pathology sample collections, but had access to water ad libitum. Samples were collected according to Table 10.
Multiple-dose phase animals surviving until scheduled euthanasia were weighed, samples for evaluation of clinical pathology parameters were collected as specified above, and the animals were euthanized by sodium pentobarbital injection, followed by exsanguination. Animals were fasted (overnight) before their scheduled necropsy.
as §1, with “phase” for “study”

[5] = Day 15 vs pretest, 200 mg/kg/day, methanesulfonate, 200 mg/kg/day

## CN(C)C(=O)COC(=O)Cc1ccc(OC(=O)c2ccc(NC(=N)N)cc2)cc1 [Camostat Mesilate, N,N-dimethylcarbamoylmethyl-4-(4-guanidinobenzoyloxy)phenylacetate methanesulfonate]
[1]
  Hepatic stellate cell activation and hepatic fibrosis: attenuated hepatic stellate cell activation as well as hepatic fibrosis
  Systemic or local side effects: without entailing apparent systemic or local side effects
[1]; methanesulfonate
  TGF-β1 concentrations: decreased TGF-β1 concentrations; also recorded: suppressed
[2]
  Fibrosis associated with chronic pancreatitis: suppress fibrosis
  Microscopic signs of inflammation: markedly decrease microscopic signs of inflammation
  Pro-inflammatory cytokine production: suppress pro-inflammatory cytokine production
[3]; 1300 mg/kg/day, Day 8, methanesulfonate
  Clinical observations: Most of the 1300 mg/kg/day animals were noted to be thin and 3/3 males and 2/3 females were noted to be thin
[3]; 1300 mg/kg/day, male
  Necropsy observation not considered test article related: small seminal vesicle was noted in one 1300 mg/kg/day male
[3]; 3 times per day for 7 days
  Overall conclusion of multiple dosing: body weight loss and decreased food consumption
[3]; 100, 550, 1300 mg/kg/day
  Gross necropsy findings: no toxicologically meaningful gross necropsy findings
[3]; 100, 550, 1300 mg/kg/day, 3 times a day, 7 days, euthanasia Day 8, methanesulfonate
  Survival: All animals survived to scheduled euthanasia; also recorded: No animals died
[3]; 100 or 550 mg/kg/day
  Mean body weights compared to controls: no statistically significant or toxicologically meaningful differences
[3]; 100 or 550 mg/kg/day, 7 days
  Clinical observations: no clinical observations noted
[3]; 100 or 550 mg/kg/day, Day 8
  Mean body weight, deviation from controls: ≤ 4.4%
[3]; Days 1 to 7, all dose groups
  Mean food consumption, statistical comparison with controls: no statistically significant differences
[3]; females, Day 8, 1300 mg/kg/day, statistically decreased Days 5 to 8
  Mean body weight lower than controls: 19%
[3]; females, 1300 mg/kg/day
  Body weight change Days 1 to 8: −13%
[3]; males, Day 8, 1300 mg/kg/day, statistically decreased Days 4 to 8
  Mean body weight lower than controls: 25%
[3]; males, 1300 mg/kg/day
  Body weight change Days 1 to 8: −15%
[3]; rats, oral, 3 times per day
  High-dose level chosen from the tolerance study: 1300 mg/kg/day
[4]; 200 mg/kg/day (66.7 mg/kg/dose 3 times a day), 14 days, 1 male and 1 female, methanesulfonate
  Survival: No animals died; also recorded: All animals survived to scheduled euthanasia
[4]; 200 mg/kg/day, 14 days
  Body weight, overall conclusion: body weight loss
  Food consumption: no notable changes
[4]; Day 15, 200 mg/kg/day
  Gross necropsy findings: no gross necropsy findings
[4]; [5]
  Hematology parameters: no toxicologically meaningful changes; also recorded: no notable changes
  Urinalysis parameters: no toxicologically meaningful changes; also recorded: no notable changes
[4]; dogs, oral, 3 times per day
  High-dose level chosen from the tolerance study: 200 mg/kg/day
[4]; female, 200 mg/kg/day, 14 days
  Body weight change Days 1 to 15: −2.7%
  Clinical observations: clear ocular discharge and single occurrences of vomitus and mucoid feces
[4]; male and female, Day 15, 200 mg/kg/day, methanesulfonate, 200 mg/kg/day
  Clinical chemistry, potential test article-related changes: increased creatinine and γ-glutamyl transferase; also recorded: increases in creatinine and γ-glutamyl transferase
[4]; male, 200 mg/kg/day, 14 days
  Body weight change Days 1 to 15: −9.2%
  Clinical observations: thin appearance and a single occurrence of vomitus
